From patent US9409864B2, “Sulfonamide TRPA1 receptor antagonists” (ARIO PHARMA LIMITED, priority 2013, dated 2016)

Molecular target: T1, native human TRPA1 receptors (Homo sapiens, UniProt O75762)
T1 construct: stably expressing native human TRPA1 receptors were used; endogenous in cells; host or cells: A549 human lung adenocarcinoma epithelial cell line
Assay: PF-4840154 (1 μM)-induced Ca2+ fluorescence measurements in A549 cell line
Type: cell-based
Conditions: for inhibition at 10 µM: 10 μM compound against 1 μM PF-4840154, A549 cells; for IC50: A549 cells
Experimental: PF-4840154 (1 μM)-Induced Ca^2+ Fluorescence Measurements in A549 Cell Line
Human lung adenocarcinoma epithelial cell line (A549) stably expressing native human TRPA1 receptors were used. The cells were cultured in medium consisting of Eagle's minimal essential medium (EMEM) supplemented with 10% fetal bovine serum (FBS), penicillin (100 IU/ml), streptomycin ([…]), L-glutamine (2 mM), sodium bicarbonate (2.5 g/L) and HEPES (24 mM). Cells were kept at 37° C. in 5% CO2/humidified air. For the experiments the cells were seeded at a density of 16,000 cells/well into 96-well black, clear-bottom plates. After 24 hours incubation the cells were loaded with medium supplemented with 2.5 mM probenecid, 3 μM of the calcium sensitive fluorescent dye Fluo-4 AM and 0.01% pluronic acid, for 30 min at 37° C. Afterwards the loading solution was aspirated and 100 μl/well of assay buffer: Hank's Balanced Salt Solution (HBSS) supplemented with 2.5 mM probenecid and 500 μM Brilliant Black (Aldrich) was added. Stock solutions (100 mM) of ligands were made in Dimethyl Sulfoxide (DMSO) and stored at −20° C. Serial dilutions of ligands for experimental use were made in HBSS buffer. After placing both plates (cell culture and compound plate) into the FlexStation II (Molecular Device, Union City, Calif. 94587, US), fluorescence changes were measured. On-line additions were carried out in a volume of […]. To facilitate drug diffusion into the wells in antagonist type experiments, the studies were performed at 36.5° C. and three cycles of mixing (25 μl from each well moved up and down 3 times) were performed immediately after antagonist injection to the wells. All exemplified compounds were tested alone (to address residual agonistic activity) and against 1 μM of PF-4840154 to address inhibitory activity at the initial concentration of 10 μM. For selected examples the entire inhibitory concentration-response curves were constructed and the IC50 value calculated.
PF-4840154 (1 μM) increased [Ca^2+] in the vast majority (95%) of cultured cells which were thereby identified as TRPA1 expressing cells.

[1] = against PF-4840154 (1 μM)-evoked [Ca2+]i mobilization
[2] = against PF-4840154 (1 μM), cells printed in μM

T1 sequence (O75762 whole entry): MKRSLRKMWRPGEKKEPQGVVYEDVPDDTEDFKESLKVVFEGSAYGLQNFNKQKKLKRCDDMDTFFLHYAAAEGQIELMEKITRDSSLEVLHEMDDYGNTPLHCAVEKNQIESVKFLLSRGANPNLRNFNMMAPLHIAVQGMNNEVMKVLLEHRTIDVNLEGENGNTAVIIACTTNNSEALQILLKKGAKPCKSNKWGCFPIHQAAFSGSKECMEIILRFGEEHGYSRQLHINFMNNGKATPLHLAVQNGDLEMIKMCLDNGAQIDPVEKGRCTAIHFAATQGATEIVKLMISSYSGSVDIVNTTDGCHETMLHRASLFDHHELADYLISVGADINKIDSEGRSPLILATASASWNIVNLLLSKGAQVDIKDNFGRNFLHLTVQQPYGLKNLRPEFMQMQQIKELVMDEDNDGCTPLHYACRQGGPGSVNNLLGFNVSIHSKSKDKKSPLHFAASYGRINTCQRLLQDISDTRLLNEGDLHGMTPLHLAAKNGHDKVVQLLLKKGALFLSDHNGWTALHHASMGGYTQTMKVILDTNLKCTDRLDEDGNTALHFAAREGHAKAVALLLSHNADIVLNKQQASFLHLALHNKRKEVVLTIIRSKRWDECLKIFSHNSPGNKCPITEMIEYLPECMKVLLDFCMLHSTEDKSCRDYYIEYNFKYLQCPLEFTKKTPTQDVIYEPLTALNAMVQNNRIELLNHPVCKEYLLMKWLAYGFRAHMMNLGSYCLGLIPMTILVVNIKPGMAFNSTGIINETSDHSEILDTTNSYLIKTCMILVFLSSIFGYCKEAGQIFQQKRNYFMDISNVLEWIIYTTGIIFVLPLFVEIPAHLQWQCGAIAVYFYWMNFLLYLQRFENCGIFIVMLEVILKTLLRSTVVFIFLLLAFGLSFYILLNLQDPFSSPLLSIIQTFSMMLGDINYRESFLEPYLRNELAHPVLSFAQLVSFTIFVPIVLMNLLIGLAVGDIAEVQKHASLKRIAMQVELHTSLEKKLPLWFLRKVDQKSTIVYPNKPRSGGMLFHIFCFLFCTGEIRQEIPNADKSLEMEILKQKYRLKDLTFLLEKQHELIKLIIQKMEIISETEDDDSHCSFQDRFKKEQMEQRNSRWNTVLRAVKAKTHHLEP

Row | Compound | inhibition at 10 µM | IC50 [1] | IC50 [2]
1 | C=C(C(=O)NCc1ccnc(-c2ccc(OC(F)(F)F)cc2)c1)N(C)S(=O)(=O)c1ccc(C)cc1 [Example 6, 2-(methyl(p-tolylsulfonyl)amino)-N-[[2-[4-(trifluoromethoxy)phenyl]-4-pyridyl]methyl]prop-2-enamide] | 100% | 0.355 µM | 
2 | CN(C1(C(=O)NCc2cccc(-c3ccc(OC(F)(F)F)cc3)c2)CC1)S(=O)(=O)c1ccc(F)cc1 [Example 57, 1-[(4-fluorophenyl)sulfonyl-methyl-amino]-N-[[3-[4-(trifluoromethoxy)phenyl]phenyl]methyl]cyclopropanecarboxamide] | 97% | 0.275 µM | 
3 | C=C(C(=O)NCc1cc(-c2ccc(OC(F)(F)F)cc2)nc(N2CCOCC2)c1)N(C)S(=O)(=O)c1ccc(Cl)cc1 [Example 16, 2-[(4-chlorophenyl)sulfonyl-methyl-amino]-N-[[2-morpholino-6-[4-(trifluoromethoxy)phenyl]-4-pyridyl]methyl]prop-2-enamide] | 99% | 0.457 µM | 
4 | C/C=C(/C(=O)NCc1ccnc(-c2ccc(OC(F)(F)F)cc2)c1)N(C)S(=O)(=O)c1ccc(F)cc1 [Example 21, (Z)-2-[(4-fluorophenyl)sulfonyl-methyl-amino]-N-[[2-[4-(trifluoromethoxy)phenyl]-4-pyridyl]methyl]but-2-enamide] | 100% | 0.323 µM | 
5 | CCN(C1(C(=O)NCc2cc(-c3ccc(C(F)(F)F)cc3)nc(N3CCN(C4CCCCC4)CC3)c2)CC1)S(=O)(=O)c1ccc(F)cc1 [Example 66, N-[[2-(4-cyclohexylpiperazin-1-yl)-6-[4-(trifluoromethyl)phenyl]-4-pyridyl]methyl]-1-[ethyl-(4-fluorophenyl)sulfonyl-amino]cyclopropanecarboxamide] | 93% |  | 1.5 µM
6 | C=C(C(=O)NCc1cc[n+]([O-])c(-c2ccc(C(F)(F)F)cc2)c1)N(CC)S(=O)(=O)c1ccc(F)cc1 [Example 54, 2-[ethyl-(4-fluorophenyl)sulfonyl-amino]-N-[[1-oxido-2-[4-(trifluoromethyl)phenyl]pyridin-1-ium-4-yl]methyl]prop-2-enamide] | 47% |  | > 10 µM

The remaining molecules from weak to strong by IC50 [1], led by results:

Row | inhibition at 10 µM | IC50 [1] | IC50 [2] | Compound
7 | 99% | 0.182 µM |  | C=C(C(=O)NCc1cc(-c2ccc(C(F)(F)F)cc2)nc(N2CCCC2)c1)N(C)S(=O)(=O)c1ccc(Cl)cc1 [Example 13, 2-[(4-chlorophenyl)sulfonyl-methyl-amino]-N-[[2-pyrrolidin-1-yl-6-[4-(trifluoromethyl)phenyl]-4-pyridyl]methyl]prop-2-enamide]
8 | 100% | 0.138 µM |  | CCN(C1(C(=O)NCc2cccc(-c3ccc(C(F)(F)F)cc3)c2)CC1)S(=O)(=O)c1ccc(F)cc1 [Example 29, 1-[ethyl-(4-fluorophenyl)sulfonyl-amino]-N-[[3-[4-(trifluoromethyl)phenyl]phenyl]methyl]cyclopropanecarboxamide]
9 | 100% | 0.118 µM |  | C=C(C(=O)NCc1ccnc(-c2ccc(C(F)(F)F)cc2)c1)N(CC)S(=O)(=O)c1cccc(F)c1 [Example 36]
10 | 100% | 0.076 µM |  | CCN(C1(C(=O)NCc2ccnc(-c3ccc(C(F)(F)F)cc3)c2)CC1)S(=O)(=O)c1ccc(F)cc1 [Example 25, 1-[ethyl-(4-fluorophenyl)sulfonyl-amino]-N-[[2-[4-(trifluoromethyl)phenyl]-4-pyridyl]methyl]cyclopropanecarboxamide]
11 | 98% | 0.068 µM |  | C=C(C(=O)NCc1cccc(-c2ccc(C(F)(F)F)cc2)c1)N(C)S(=O)(=O)c1ccc(Cl)cc1 [Example 9, 2-[(4-chlorophenyl)sulfonyl-methyl-amino]-N-[[3-[4-(trifluoromethyl)phenyl]phenyl]methyl]prop-2-enamide]
